One experiment concerns the target HDAC2 (Homo sapiens, UniProt Q92769). As to the kind of experiment: HDAC2 inhibitory activity (IC50). The note with it: Table 2; read-out: HDAC2. It is filed as biochemical.
Another experiment has as its target HDAC1 (Homo sapiens, UniProt Q13547). As to the kind of experiment: HDAC1 inhibitory activity (IC50). It is filed as biochemical. The note with it: Table 2; read-out: HDAC1.
For a further experiment, the target named is T1, HDAC6 (Homo sapiens, UniProt Q9UBN7).
T1 sequence (Q9UBN7 1-1215): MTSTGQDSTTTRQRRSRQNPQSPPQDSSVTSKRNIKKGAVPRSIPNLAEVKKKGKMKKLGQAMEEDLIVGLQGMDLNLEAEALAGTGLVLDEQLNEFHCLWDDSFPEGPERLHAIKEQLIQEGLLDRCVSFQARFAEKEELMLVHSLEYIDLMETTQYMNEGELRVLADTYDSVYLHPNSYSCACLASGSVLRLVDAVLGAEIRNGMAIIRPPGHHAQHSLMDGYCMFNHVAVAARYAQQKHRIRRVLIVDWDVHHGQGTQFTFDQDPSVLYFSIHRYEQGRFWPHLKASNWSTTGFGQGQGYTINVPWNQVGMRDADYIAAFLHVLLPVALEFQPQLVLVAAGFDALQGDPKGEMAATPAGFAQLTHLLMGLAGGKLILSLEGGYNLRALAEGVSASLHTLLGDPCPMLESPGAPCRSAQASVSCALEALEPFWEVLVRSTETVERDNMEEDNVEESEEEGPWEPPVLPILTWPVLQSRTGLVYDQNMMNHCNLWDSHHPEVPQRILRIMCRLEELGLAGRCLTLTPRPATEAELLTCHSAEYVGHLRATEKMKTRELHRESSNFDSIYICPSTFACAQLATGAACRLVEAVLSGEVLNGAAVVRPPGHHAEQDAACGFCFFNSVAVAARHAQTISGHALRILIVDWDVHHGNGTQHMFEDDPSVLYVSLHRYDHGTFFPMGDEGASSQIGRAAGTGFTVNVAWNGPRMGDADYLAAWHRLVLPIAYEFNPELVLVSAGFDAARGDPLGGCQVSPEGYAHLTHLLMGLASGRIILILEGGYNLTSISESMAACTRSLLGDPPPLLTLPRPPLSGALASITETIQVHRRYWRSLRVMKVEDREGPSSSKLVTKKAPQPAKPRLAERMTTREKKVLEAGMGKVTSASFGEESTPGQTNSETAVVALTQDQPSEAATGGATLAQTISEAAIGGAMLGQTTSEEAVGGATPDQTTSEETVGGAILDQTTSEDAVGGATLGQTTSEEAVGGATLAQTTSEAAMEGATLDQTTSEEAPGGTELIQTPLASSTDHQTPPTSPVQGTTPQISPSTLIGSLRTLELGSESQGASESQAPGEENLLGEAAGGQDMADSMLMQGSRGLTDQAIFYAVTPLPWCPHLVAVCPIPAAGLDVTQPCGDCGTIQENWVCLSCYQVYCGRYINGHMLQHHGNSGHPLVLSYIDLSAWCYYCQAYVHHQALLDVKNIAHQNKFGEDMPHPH
As to the kind of experiment: HDAC6 inhibitory activity (IC50). The note with it: Table 2; read-out: HDAC6. It is filed as biochemical.

For another experiment, the target named is HDAC3 (Homo sapiens, UniProt O15379). As to the kind of experiment: HDAC3 inhibitory activity (IC50). It is filed as biochemical. The note with it: Table 2; read-out: HDAC3.
HDAC3, sequence (O15379 whole entry): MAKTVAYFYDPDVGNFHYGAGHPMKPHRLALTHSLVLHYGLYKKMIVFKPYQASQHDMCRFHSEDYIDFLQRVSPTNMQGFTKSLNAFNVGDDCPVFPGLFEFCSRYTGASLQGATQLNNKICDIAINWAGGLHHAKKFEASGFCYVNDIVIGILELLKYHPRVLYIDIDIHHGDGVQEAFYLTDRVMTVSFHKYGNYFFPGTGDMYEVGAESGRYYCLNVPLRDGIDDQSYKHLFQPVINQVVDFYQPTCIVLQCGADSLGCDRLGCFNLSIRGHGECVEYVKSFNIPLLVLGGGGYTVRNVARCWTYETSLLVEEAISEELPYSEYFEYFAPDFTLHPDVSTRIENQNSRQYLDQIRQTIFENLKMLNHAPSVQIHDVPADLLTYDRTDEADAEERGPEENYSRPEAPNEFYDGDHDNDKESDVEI
HDAC3, sequence (Q9Y618 395-489 partner limits assumed): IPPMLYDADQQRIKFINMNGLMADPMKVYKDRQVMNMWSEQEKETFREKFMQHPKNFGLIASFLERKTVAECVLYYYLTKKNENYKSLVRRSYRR
A further experiment relates to pSTAT3 (Tyr705). The experiment can be described thus: Immunoblot of STAT3 phosphorylation in MM cells. It is filed as cell-based, human. The method, then:
MM cells were harvested and lysed using sodium dodecyl sulfate-polyacrylamide gel electrophoresis (SDS-PAGE) sample buffer containing 60 mM Tris-HCl, pH 6.8, 2% SDS, 10% glycerol, 0.005% bromophenol blue, 5 mM ethylenediaminetetraacetic acid, 5 mM NaF, 2 mM […], 1 mM phenylmethylsulfonyl fluoride (PMSF), 5 μg/mL leupeptin, and 5 μg/mL aprotinin; and then heated at 100° C. for 5 min. After the determination of protein concentration using DC protein assay (Bio-Rad, Hercules, Calif.), β-mercaptoethanol (β-ME) was added to the whole-cell lysates to a 2% final β-ME concentration. The whole-cell lysates were subjected to SDS-PAGE, transferred to nitrocellulose membranes (Bio-Rad, Hercules, Calif.) or polyvinylidene fluoride membranes (Millipore, Billerica, Mass.), and immunoblotted with anti-histone H3, -HDAC1, -HDAC2, -HDAC3, -Acetyl-histone H2A (Lysine 5) (Ac-H2AK5), -Acetyl-histone H2B (lysine 5) (Ac-H2 BK5), -Acetyl-histone H3 (lysine 9) (Ac-H3K9), -Acetyl-histone H4 (lysine 8) (Ac-H4K8), -glyceraldehyde-3-phosphate dehydrogenase (GAPDH), -poly (ADP-ribose) polymerase (PARP), -caspase-3, -caspase-8, -caspase-9, -Signal transducers and activators of transcription 3 (STAT3), -phospho-STAT3 (pSTAT3) (tyrosine 705), -pSTAT3 (serine 727), -p21, -Janus kinase 2 (JAK2), -acetylated-Lysine (Ac-K), and anti-phosphorylated-tyrosine antibodies (Abs; Cell Signaling Technology, Beverly, Mass.).
MM.1S, U266, and INA6 cells were cultured with DMSO control or LBH589 (50 and 100 nM) for 8 h.
MM.1S cells pretreated with or without 50 nM LBH589 for 8 hours were then treated with IL-6 (10 ng/mL) or BMSC culture supernatants (#1 and #2) for 15 minutes. Whole cell lysates were subjected to immunoblotting with anti-pSTAT3 (Tyr705) and STAT3 Abs.
In addition, INA-6 cells were cultured with DMSO control, LBH589 (50 nM), TSA (1 μM) or SAHA (2 μM) for 8 hours. Whole cell lysates were subjected to immunoblotting with anti-pSTAT3 (Tyr705), STAT3, and GAPDH Abs.
Whole cell lysates were subjected to immunoblotting with anti-pSTAT3 (Tyr705), -STAT3, -pERK1/2 (Thr202/204), and -ERK1/2 Abs (FIG. 6G).
See, e.g., Hideshima et al. Blood. 2006, 107:4053-4062. Since bortezomib upregulates activated STAT3 in head and neck squamous cell carcinoma (see, e.g., Li et al. Mol Cancer Ther 2009. 8:2211-2220), experiments were conducted to test whether bortezomib enhances p-STAT3 in MM cells. RPMI8226 cells were infected with Luc, HDAC1 (sh1), HDAC2 (sh1) or HDAC3 (sh1) shRNAs and then treated with or without bortezomib (5 nM) for 6 hours. Whole cell lysates were subjected to immunoblotting with anti-STAT3, -pSTAT3 (Tyr705), -pERK1/2 (Thr202/204) and -ERK1/2 Abs.

Another experiment relates to MM.1S cells. As to the kind of experiment: Immunoblot of histone and α-tubulin acetylation in MM.1S cells. It is filed as cell-based, human. The note with it: 12 h, Compound 10 10 and 20 μM. (In western blotting, separated proteins are transferred to a membrane and probed.)
The mark [1] stands for this setting: INA-6 cells, 8 hours, TSA 1 μM, SAHA 2 μM (FIG. 4C).

SMILES strings stand for the structures.

HDAC2, sequence (Q92769 whole entry): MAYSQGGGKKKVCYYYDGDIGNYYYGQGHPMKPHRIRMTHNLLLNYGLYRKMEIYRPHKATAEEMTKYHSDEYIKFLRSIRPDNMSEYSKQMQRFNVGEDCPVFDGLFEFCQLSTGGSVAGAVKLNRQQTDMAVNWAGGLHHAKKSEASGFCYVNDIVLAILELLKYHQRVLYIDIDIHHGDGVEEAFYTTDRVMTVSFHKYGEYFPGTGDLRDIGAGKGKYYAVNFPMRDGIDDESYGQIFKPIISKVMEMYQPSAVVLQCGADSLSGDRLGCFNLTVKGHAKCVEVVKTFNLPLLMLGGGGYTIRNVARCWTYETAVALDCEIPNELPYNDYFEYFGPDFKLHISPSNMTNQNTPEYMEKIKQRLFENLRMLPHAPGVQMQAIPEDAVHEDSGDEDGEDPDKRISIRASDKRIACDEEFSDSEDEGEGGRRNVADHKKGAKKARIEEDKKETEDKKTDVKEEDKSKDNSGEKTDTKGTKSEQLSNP
HDAC1, sequence (Q13547 whole entry): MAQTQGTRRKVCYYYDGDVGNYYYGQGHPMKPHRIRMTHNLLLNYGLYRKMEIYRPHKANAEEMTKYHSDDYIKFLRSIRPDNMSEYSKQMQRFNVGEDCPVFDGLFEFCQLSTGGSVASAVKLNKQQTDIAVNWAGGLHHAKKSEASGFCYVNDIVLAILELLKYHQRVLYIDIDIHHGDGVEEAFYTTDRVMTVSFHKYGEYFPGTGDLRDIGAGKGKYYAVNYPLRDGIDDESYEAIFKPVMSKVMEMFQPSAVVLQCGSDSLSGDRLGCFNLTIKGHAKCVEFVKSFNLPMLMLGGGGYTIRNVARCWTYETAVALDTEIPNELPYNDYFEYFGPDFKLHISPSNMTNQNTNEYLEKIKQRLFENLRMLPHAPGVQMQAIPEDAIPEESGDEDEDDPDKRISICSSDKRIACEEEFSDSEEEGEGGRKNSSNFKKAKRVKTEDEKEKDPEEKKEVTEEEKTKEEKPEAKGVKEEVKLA
Procedure for HDAC1: (§1) HDAC inhibitor compounds designed and synthesized in accordance with the present invention were tested for their inhibitor activity against several different HDAC isoforms.
Procedure for HDAC2: as §1
Procedure for HDAC3: as §1
Procedure for HDAC6: as §1

Consider `CC(=O)Nc1ccc(C(=O)Nc2cc(-c3ccccc3)ccc2N)cc1` [Compound 11], for which the IC50 on HDAC2 is 60.4 nM; on HDAC1 it was less than 10 nM; on HDAC6, greater than 100000 nM; on HDAC3, 843 nM.

As for `CC(/C=C/C(=O)NO)=C\[C@@H](C)C(=O)c1ccc(N(C)C)cc1` [TSA], the p-STAT3 result in the experiment with pSTAT3 (Tyr705) (setting [1]) is listed as “downregulated p-STAT3”.

On to `O=C(Nc1ccccc1O)c1cccnc1` [Compound 5], for which the IC50 at HDAC2 was 3670 nM; at HDAC1, 10500 nM; at HDAC6, greater than 100000 nM; on HDAC3, 3320 nM.

Turning to `Nc1cc(F)ccc1NC(=O)c1cccnc1` [Compound 13], the IC50 on HDAC2 was 13400 nM; on HDAC1 it was 27000 nM; on HDAC6 it was greater than 100000 nM; on HDAC3 it was 1960 nM.

In the case of `Nc1cc(F)ccc1NC(=O)c1cnccn1` [Compound 14], the IC50 on HDAC2 is 2320 nM; at HDAC1 it was 4120 nM; on HDAC6, greater than 100000 nM; on HDAC3 it was 296 nM.

As to `O=C(CCCCCCC(=O)Nc1ccccc1)NO` [SAHA, suberoylanilide hydroxamic acid], the p-STAT3 result in the experiment with pSTAT3 (Tyr705) (setting [1]) is recorded as “downregulated p-STAT3”.

Turning to `O=C(Nc1ccccc1O)c1ccccn1` [Compound 7], the IC50 on HDAC2 was 4110 nM; on HDAC1, 12400 nM; on HDAC6, greater than 100000 nM; at HDAC3, 3620 nM.

In the case of `Cc1[nH]c2ccccc2c1CCNCc1ccc(/C=C/C(=O)NO)cc1` [LBH589, reference compound], the histone acetylation entry with MM.1S cells (LBH589 50 and 100 nM (FIG. 6F left)) is “significantly triggered both histone and α-tubulin acetylation”. Further, the “α-tubulin acetylation (biomarker of HDAC6 inhibition)” value in the experiment with MM.1S cells (LBH589 50 and 100 nM (FIG. 6F right)) is “significantly triggered both histone and α-tubulin acetylation”. For the same compound, the “P-STAT3 upregulated by IL-6 or BMSC culture supernatants” value in the experiment on pSTAT3 (Tyr705) (MM.1S, 50 nM pretreatment 8 hours, IL-6 10 ng/mL or supernatants 15 minutes (FIG. 4B)) was “blocked”. In the experiment on pSTAT3 (Tyr705) (MM.1S, U266, INA-6 cells, 50 and 100 nM, 8 h (FIG. 4A)), the p-STAT3 entry is on record as “significantly inhibited”.

`O=C(Nc1ccc(F)cc1O)c1cccnc1` [Compound 15]: the IC50 at HDAC2 is 5520 nM; on HDAC1 it was 13700 nM; on HDAC6 it was greater than 100000 nM; at HDAC3, 2350 nM.

Take `Nc1ccccc1NC(=O)c1ccccn1` [Compound 3]: the IC50 was 2360 nM on HDAC2, greater than 100000 nM at HDAC6 and 346 nM at HDAC3.

For the compound `Nc1ccccc1NC(=O)c1ccc(Cl)nc1` [Compound 9], the IC50 at HDAC2 was 2590 nM; at HDAC1 it was 3280 nM; at HDAC6, greater than 100000 nM; at HDAC3 it was 280 nM.

As to `O=C(Nc1ccccc1O)c1ccncc1` [Compound 6], the IC50 was 1910 nM at HDAC2, 5770 nM at HDAC1, greater than 100000 nM at HDAC6 and 1990 nM at HDAC3.

Take `Nc1ccccc1NC(=O)c1cccnc1` [Compound 1]: the IC50 on HDAC6 came to 74300 nM.

In the case of `Cc1ccc(C(=O)Nc2ccccc2N)cn1` [Compound 17], the IC50 at HDAC2 is 1360 nM; on HDAC1 it was 1390 nM; on HDAC6 it was greater than 100000 nM; at HDAC3, 213 nM.

In the case of `Nc1ccccc1NC(=O)c1cnc(Nc2ccccc2)nc1` [Compound 8], the IC50 on HDAC2 is 1210 nM; on HDAC1, 735 nM; at HDAC6, greater than 100000 nM; on HDAC3 it was 169 nM.

With `Nc1ccccc1NC(=O)c1ccncc1` [Compound 2], the IC50 at HDAC2 was 2340 nM; at HDAC1, 2820 nM; at HDAC6, greater than 100000 nM; at HDAC3, 368 nM.

As to `CC(=O)Nc1ccc(C(=O)Nc2ccc(F)cc2N)cc1` [Compound 12], the IC50 was 760 nM at HDAC2, 1230 nM at HDAC1, greater than 100000 nM on HDAC6 and 70.2 nM on HDAC3.

These data come from patent US9988343B2, “Inhibitors of histone deacetylase” (Dana-Farber Cancer Institute, Inc., priority 2013, dated 2018).
